Measurements published in patent EP0761222A1, “Use of orotic acid for the preparation of a medicament for amelioration of microcirculation” (WÖRWAG PHARMA GmbH, priority 1995, dated 1997).

Legend:
Type in all cases: in vivo
[1] = system: Kaninchen; assay: Arteriosclerosis model under 2 % cholesterol diet, planimetric-photographic (density slice) and histological evaluation of vessels; details: 112 Tage 2 % cholesterol diet; for Index arteriosklerotischer Gefäßveränderungen (Gefäßverengungen): equimolar amounts, untreated control index 34,36, Fig. 1
Description: (§1) In einer Versuchsreihe mit einem Arteriosklerose-Modell wurden Kaninchen über 112 Tage einer zweiprozentigen Cholesterindiät ausgesetzt und mit äquimolaren Mengen von` Magnesiumchlorid, Orotsäure und Magnesiumorotat bzw. in der Kontrollgruppe überhaupt nicht weiter behandelt. Zusätzlich zu histologischen Untersuchungen der Koronaarterien sowie der Aorta femoralis und renalis wurde der Zustand der Aorta an jeweils mehreren Stellen auch planimetrisch-photographisch dokumentiert. Mittels einer computergestützten, digitalen Methode der Oberflächenmessung ("density slice"-Methode) erhält man hierbei dreidimensionale Bilder, mit deren Hilfe auch eine Quantifizierung der cholesterininduzierten Lumeneinengungen möglich ist.

[2] = system: Patienten mit Durchblutungsstörungen; assay: Effect of a single oral dose of Magnesiumorotat on flow properties of human blood, blood pressure and transcutaneous oxygen pressure
Protocol: 10 Patienten mit Durchblutungsstörungen wurden 4 g Magnesiumorotat zusammen mit ca. 150 ml Wasser verabreicht. Die Blutentnahme erfolgte vor und im Abstand von 15, 30, 60, 120 und 180 Minuten nach der Tabletteneinnahme. Direkt vor jeder Blutentnahme wurden Blutdruck, Puls, der transkutane Sauerstoffdruck, der transkutane Kohlendioxiddruck und die Heizleistungsabweichung gemessen. Es wurden folgende Blutparameter untersucht: • Hämatokrit • BSC • Plasmaviskosität • Erythrozytenaggregation • Erythrozytenfiltrabilität.
Es wurde eine Senkung des systemischen Druckes, insbesondere des systolischen Druckes, bis zum Zeitpunkt 60 Minuten nach Tablettenvergabe festgestellt. Die relative Plasmaviskosität erreicht 60 Minuten nach Tabletteneinnahme ihr Minimum mit anschließender Tendenz zur Normalisierung. In ähnlicher Weise verhält sich die Blutviskosität, die 30 Minuten nach Tabletteneinnahme ein Minimum aufweist.
Besonders interessant sind die Veränderungen der transkutanen Sauerstoffdruckwerte, die im Bereich des Vorfußes abgenommen werden. Bei diesen Patienten mit einer chronisch-arteriellen Verschlußkrankheit sind die tcpO2-Werte bekannterweise nicht sonderlich erniedrigt. Die Ergebnisse der pO2-Werte zeigen doch, daß es zu einem Anstieg der pO2-Werte kommt, die zu dem Zeitpunkt 15 und 30 Minuten statistisch gesichert sind. Dieser Anstieg der tcpO2-Werte überrascht und beruht auf den verbesserten Fließeigenschaften des Blutes.

[3] = system: Kaninchen; assay: Coronary angiography in the arteriosclerosis model of Beispiel 2; details: cholesterol stress, untreated control developed Mikroangiopathien
Description: as §1
Zusätzlich zu den planimetrisch-photographischen Untersuchungen wurde bei der Versuchsreihe aus Beispiel 2 auch eine koronarangiographische Untersuchung vorgenommen.

[4] = system: Wistar-Ratten; assay: Hypertension animal model (ROG-Modell, LG-Modell), malignant hypertension
Description: In den Hypertonie-Tiermodellen nach Rojo-Ortega-Genest (ROG-Modell) und Lörincz-Goracz (LG-Modell) wird bei Wistar-Ratten die Aorta zwischen den beiden Renalarterien unterbunden bzw. die Niere in eine Gummimanschette fest eingepreßt, was einen malignen Hypertonus hervorruft, also eine Hypertonie mit konstanter Erhöhung des arteriellen diastolischen Blutdruckes auf > 120 mmHg.
Das Ergebnis dieser Untersuchung ist in Fig. 2 dargestellt, wobei die dunklen Säulen jeweils den Beginn der ROG-Hypertonie anzeigen, während die hellen Säulen das Ende der ROG-Hypertonie darstellen. Links in Fig. 2 ist die ROG-Hypertonie ohne Behandlung gezeigt, während die beiden rechten Säulen den Verlauf der ROG-Hypertonie unter Zugabe von täglich 300 mg Magnesiumorotat wiedergibt.

[5] = system: Triathleten; assay: Double-blind, randomised, placebo-controlled triathlon test, parameters of energy metabolism in blood; details: four weeks Magnesiumorotat 17 mmol/Tag
Description: In einer doppelblinden, randomisierten und placebokontrollierten Studie wurden 23 Triathleten einem 500 m Schwimm-, 20 km Fahrrad- und 5.000 m Lauftest nach einer vierwöchigen Magnesiumorotat-Supplementierung von 17 mmol/Tag unterworfen. Die Tests wurden ohne Pausen direkt hintereinander absolviert. Vor dem Test, zwischen den Disziplinen und am Ende wurde den Probanden Blut entnommen und auf Parameter des Energiestoffwechsels untersucht.

Structure (SMILES)	Index arteriosklerotischer Gefäßveränderungen (Gefäßverengungen) [1]	systemischer Druck, insbesondere systolischer Druck ([2]; 4 g Magnesiumorotat oral, single dose, 10 patients, until 60 Minuten after tablet intake)	Erythrozytenfiltrationswerte ([2]; 4 g Magnesiumorotat oral, 15-180 Minuten after intake)	transkutane Sauerstoffdruckwerte (tcpO2-Werte), Vorfuß ([2]; 4 g Magnesiumorotat oral, statistically confirmed at 15 and 30 Minuten)	Hämatokritwert ([2]; 4 g Magnesiumorotat oral, tendency to rise again at end of test)	Zeitpunkt des Minimums der Blutviskosität ([2]; 4 g Magnesiumorotat oral, time after tablet intake) [Minuten]	Zeitpunkt des Minimums der relativen Plasmaviskosität ([2]; 4 g Magnesiumorotat oral, time after tablet intake, then tendency to normalise) [Minuten]	Mikrozirkulation (Kapillarfluß an dem Nagelbett) ([2]; acute oral dose of 4 g Magnesiumorotat)	Blut- und Plasmaviskosität ([2]; acute oral dose of 4 g Magnesiumorotat, patients with arterial occlusive disease)	Wirkung bei Mikroangiopathien von kleinen und kleinsten Blutgefäßen am Herzen [3]	lumeneinengende Proliferation von Schaumzellen in den Koronarien ([1]; light/electron microscopy, enzyme histochemistry)	periarterielle Zellinfiltrationen und Herzmuskelzellausfälle ([4]; 300 mg Magnesiumorotat daily, compared with no treatment)	Blutdruck systolisch, Ende der ROG-Hypertonie ([4]; ROG-Modell, 300 mg Magnesiumorotat daily, untreated control animals 186 mmHg) [mmHg]	Blutdruck systolisch, Ausgangswert ([4]; ROG-Modell, start of ROG-Hypertonie, treated group, control 81 mmHg) [mmHg]	Insulinkonzentration ([5]; control group 139 ± 101 %, significant) [% der Anfangswerte]	Anstieg der Glukosekonzentration während des Tests ([5]; control group 187 ± 34 %, significantly lower) [%]
[Cl-].[Cl-].[Mg+2] [Magnesiumchlorid, reference compound]	22,63	–	–	–	–	–	–	–	–	–	–	–	–	–	–	–
O=C(O)c1cc(=O)[nH]c(=O)[nH]1 [Magnesiumorotat]	7,28	Senkung	zu keinem Zeitpunkt nach der oralen Gabe von Magnesiumorotat zu statistisch signifikanten Veränderungen	Anstieg	temporäre Abnahme	30	60	erheblich verbesserten	signifikant vermindert	präventive und therapeutische Wirkung	weitaus am geringsten ausgeprägt	weit weniger	152	79	65 ± 43	118 ± 45
O=C(O)c1cc(=O)[nH]c(=O)[nH]1 [Orotsäure]	9,77	–	–	–	–	–	–	–	–	präventive und therapeutische Wirkung	–	–	–	–	–	–
